One series addresses Prothrombin (Homo sapiens, UniProt P00734). In words: Inhibitory constant against human alpha thrombin.
For series [1], the species on record is Canis familiaris. In words: Vss was determined. Conditions: dog, in vivo. The format is ADME, organism-based, Canis lupus familiaris.
The nature of series [2]: Percent oral bioavailability of perorally administered compound (30 mg/kg) was tested. Type of series: ADME, organism-based. Conditions: in vivo, read-out: Bioavailabiility.
Series [3] has as its system Canis familiaris. As to the kind of experiment: Time at which maximal (4 fold increase) prolong clotting time was observed after peroral administration of compound (30 mg/kg). The format is functional, Canis lupus familiaris.
Series [4] can be described thus: Oral bioavailability in dog. The format is ADME, organism-based, Canis lupus familiaris. Conditions: in vivo.
Series [5] deals with Canis familiaris. As to the kind of experiment: Anticoagulation (1.2 fold increase) after peroral administration of compound (30 mg/kg). The format is functional, Canis lupus familiaris.
Series [6] in a line: The compound was tested for maximum concentration ( Cmax ) in dog plasma. Type of series: ADME, organism-based, Canis lupus familiaris.
A short description of series [7]: The compound was tested for time taken to decrease, half of its initial concentration in dog plasma. The format is ADME, organism-based, Canis lupus familiaris.
Series [8] has as its system Canis familiaris. As to the kind of experiment: Anticoagulation (1.6 fold increase) after peroral administration of compound (30 mg/kg). The format is functional, Canis lupus familiaris.
Series [9] in a line: The compound was tested for clearance in dog plasma. The format is ADME, organism-based, Canis lupus familiaris.
The nature of series [10]: pKa was evaluated. The format is physicochemical.
Series [11] can be described thus: Partition coefficient ( LogP) of the compound. Type of series: physicochemical. Conditions: octanol/water.
Series [12] is described as follows: Dose at which bioavailability of intravenously administered compound was tested in rabbit. Conditions: in vivo, iv. The format is ADME, organism-based, Oryctolagus cuniculus.
In series [13] the test system is Canis familiaris. As to the kind of experiment: Time at which maximal (1.6 fold increase) prolong clotting time was observed after peroral administration of compound (30 mg/kg) in dog. The format is functional, Canis lupus familiaris.
The species named for series [14] is Canis familiaris. As to the kind of experiment: Vss in dog. The format is ADME, organism-based, Canis lupus familiaris. Conditions: in vivo.
For series [15], the species on record is Canis familiaris. As to the kind of experiment: The compound was tested for clotting time thrombin(TCT). The format is functional, Canis lupus familiaris.
A short description of series [16]: Percent oral bioavailability of intravenously administered compound (6 mg/kg) was tested in dog. To be noted: in vivo, intravenous, read-out: Bioavailabiility. The format is ADME, organism-based, Canis lupus familiaris.
Series [17] can be described thus: The compound was tested for its bioavailability in rabbit (by oral dosage). The format is ADME, organism-based, Oryctolagus cuniculus. To be noted: in vivo.
A short description of series [18]: Dose at which bioavailability of perorally administered compound was tested in rabbit. Type of series: ADME, organism-based, Oryctolagus cuniculus. To be noted: in vivo, po.
For series [19], the system named is Oryctolagus cuniculus. In words: Prolongation of thrombin clotting time (to 1.9x over control), after peroral administration (30 mg/kg). The format is functional.
The test system of series [20] is Oryctolagus cuniculus. In words: Prolongation of thrombin clotting time (to 1.9x over control), 60 min after peroral administration (30 mg/kg). The format is functional.

Values joined by “and” are separate entries in the source; they are usually repeats but may differ in a detail not shown here. Equal values may be shown once. Where only a bound is given, the exact number is not on record here.

The term Ki denotes the equilibrium dissociation constant of an inhibitor or competing ligand from its target. Broadly, the Cmax is the maximum level reached in the sampled fluid or tissue. Usually half-life stands for the time in which the quantity being followed falls by half. Read a high half-life as slow decline. As usually defined, the clearance is the rate of elimination divided by the concentration. A low value points to a low capacity for elimination. As a reminder, the pKa is the negative logarithm of the acid dissociation constant. Lower therefore signals a stronger acid or weaker base. As usually defined, the logP is a log measure of how a compound divides between an organic and an aqueous phase. Low readings indicate lower lipophilicity, high ones higher lipophilicity.

For the compound `Cc1cc(OCC/C=N/N=C(N)N)cc(OCc2ccccc2C(F)(F)F)c1`, on Prothrombin, the Ki is 420 nM.

Take `COc1ccccc1S(=O)(=O)Oc1cc(C)cc(OC/C=N/N=C(N)N)c1`: the inhibitory constant (Ki) on Prothrombin is greater than 1000 nM.

At Prothrombin, `COc1ccccc1S(=O)(=O)Oc1cc(C)cc(OCC/C=N/N=C(N)N)c1` had an inhibition constant Ki of 11 nM.

Turning to `Cc1cc(OCC/C=N/N=C(N)N)cc(OS(=O)(=O)c2ccccc2C#N)c1`, in the series listed under Canis familiaris [1], the Vss was found to be 23 k. The bioavailability in [2] and in series [4] was 21% each time. Besides, the Time in the series with Canis familiaris [3] was found to be 1 h; with Canis familiaris [5], 24 h; in the series on Canis familiaris [8] it was 8 h. The highest concentration (Cmax) in [6] worked out at 900 nM. The compound also showed a half-life in series [7] of 19 h. The compound also registered a clearance in series [9] of 79 mL/min/kg. Further, in series [10], the pKa is 8.84. Also, the logP in series [11] came to 2.11.

The compound `Cc1cc(OCC/C=N/N=C(N)N)cc(OS(=O)(=O)c2ccccc2S(C)(=O)=O)c1` came in with a Ki at Prothrombin of 20 nM.

With `Cc1cc(OCC/C=N/N=C(N)N)cc(OS(=O)(=O)c2cccnc2)c1`, the affinity at Prothrombin corresponds to a Ki of 36 nM.

Compound `Cc1cc(OCC/C=N/N=C(N)N)cc(OS(=O)(=O)c2cccc(Cl)c2Cl)c1` registered a Ki at Prothrombin of 9.4 nM.

On to `Cc1cc(OCC/C=N/N=C(N)N)cc(OS(=O)(=O)c2ccccc2Cl)c1`, for which the Dose in [12] came to 6 mg/kg; in [18] it was 30 mg/kg. The compound further had a Time in the series with Canis familiaris [13] of 2 h. Further, the bioavailability is 23% in series [4], 23% in series [16] and 60% in [17]. In the series listed under Canis familiaris [14], this compound displayed a Vss of 3.5 k. Also, in series [6], the peak level (Cmax) was 1800 nM. Also, the TCT is 34 s and 21 s in the series filed under Canis familiaris [15]; 26 s in the series with Oryctolagus cuniculus [19]; 50 s with Oryctolagus cuniculus [20]. The half-life in [7] is 21 h. Moreover, in [9], the clearance was determined as 39 mL/min/kg. The pKa in [10] was 8.71. This compound also yielded a lipophilicity (logP) in series [11] of 2.34.

`Cc1cc(OCC/C=N/N=C(N)N)cc(OS(=O)(=O)c2cccc3ccccc23)c1`: the affinity on Prothrombin corresponds to a Ki of 44 nM.

With `Cc1cc(OCC/C=N/N=C(N)N)cc(OS(=O)(=O)c2ccccc2OC(F)(F)F)c1`, the Ki at Prothrombin stood at 11 nM.

For the compound `Cc1cc(OCC2(/C=N/N=C(N)N)CC2)cc(OS(=O)(=O)c2ccccc2C#N)c1`, on Prothrombin, the Ki is 40 nM.

Compound `Cc1cc(OCC/C=N/N=C(N)N)cc(OS(=O)(=O)c2cccc(C)c2)c1` showed a Ki on Prothrombin of 6 nM.

On Prothrombin, `COc1cc(CCC/C=N/N=C(N)N)cc(OS(=O)(=O)c2ccccc2Cl)c1` came in with an inhibitory constant (Ki) of 990 nM.

Values taken from ChEMBL document CHEMBL1132849, “Amidinohydrazones as guanidine bioisosteres: application to a new class of potent, selective and orally bioavailable, non-amide-based small-molecule thrombin inhibitors” (Bioorg Med Chem Lett, 2000).
